From the NIST ThermoML archive (doi:10.1016/j.jct.2004.07.004)
± gives the expanded uncertainty stated by the source.

Assay: mn = molality of the nth substance listed, in mol/kg
Conditions: 100 kPa, Liquid

CC(C)C[C@H](NC(=O)[C@@H]1CCCN1)C(=O)O [proline-leucine] + O
mass density [kg/m3]
Conditions | 283.15 K | 288.15 K | 293.15 K | 298.15 K | 303.15 K | 308.15 K
m1 = 0.00191 | – | – | 998.299 ± 0.071 | – | – | 994.122 ± 0.073
m1 = 0.0025 | – | 999.209 ± 0.07 | 998.324 ± 0.071 | 997.166 ± 0.071 | – | 994.156 ± 0.073
m1 = 0.00255 | – | – | – | – | 995.771 ± 0.072 | –
m1 = 0.0035 | 999.851 ± 0.07 | 999.261 ± 0.07 | 998.368 ± 0.071 | 997.215 ± 0.071 | – | 994.198 ± 0.08
m1 = 0.00399 | – | 999.283 ± 0.07 | 998.394 ± 0.071 | – | – | –
m1 = 0.0045 | 999.901 ± 0.07 | 999.303 ± 0.07 | 998.416 ± 0.071 | 997.251 ± 0.071 | 995.856 ± 0.072 | 994.246 ± 0.073
m1 = 0.00505 | 999.956 ± 0.07 | 999.356 ± 0.07 | 998.452 ± 0.071 | – | – | 994.278 ± 0.073
m1 = 0.00549 | – | 999.353 ± 0.07 | 998.462 ± 0.071 | 997.3 ± 0.071 | 995.925 ± 0.072 | 994.294 ± 0.073
m1 = 0.00602 | 1000 ± 0.07 | 999.407 ± 0.07 | 998.502 ± 0.071 | 997.35 ± 0.071 | 995.943 ± 0.072 | 994.322 ± 0.073
m1 = 0.00649 | – | – | 998.533 ± 0.071 | 997.374 ± 0.071 | 995.96 ± 0.072 | 994.345 ± 0.073
m1 = 0.00709 | 1000.06 ± 0.07 | 999.445 ± 0.07 | 998.552 ± 0.07 | 997.381 ± 0.071 | – | –
m1 = 0.00748 | – | 999.48 ± 0.07 | 998.581 ± 0.071 | 997.416 ± 0.071 | 995.999 ± 0.072 | 994.392 ± 0.073
m1 = 0.00776 | 1000.09 ± 0.07 | – | – | – | – | –
m1 = 0.00833 | – | 999.516 ± 0.07 | 998.63 ± 0.07 | – | 996.05 ± 0.072 | 994.433 ± 0.073
m1 = 0.00849 | – | 999.544 ± 0.07 | 998.633 ± 0.07 | 997.468 ± 0.071 | 996.044 ± 0.073 | 994.436 ± 0.073
m1 = 0.00904 | 1000.16 ± 0.07 | 999.542 ± 0.07 | 998.644 ± 0.07 | – | – | –
m1 = 0.00949 | – | 999.594 ± 0.07 | 998.69 ± 0.07 | 997.521 ± 0.071 | 996.091 ± 0.072 | –
m1 = 0.01004 | – | 999.608 ± 0.07 | 998.704 ± 0.07 | 997.541 ± 0.071 | 996.128 ± 0.072 | 994.51 ± 0.073
m1 = 0.0105 | 1000.24 ± 0.07 | 999.641 ± 0.07 | 998.74 ± 0.07 | 997.562 ± 0.071 | 996.136 ± 0.072 | –
m1 = 0.01084 | 1000.25 ± 0.07 | 999.633 ± 0.07 | – | 997.57 ± 0.071 | – | 994.545 ± 0.073
m1 = 0.01148 | 1000.3 ± 0.07 | 999.691 ± 0.07 | 998.787 ± 0.07 | 997.614 ± 0.071 | 996.183 ± 0.072 | –
